{"source": "Sander's compilation of Henry's law constants (doi:10.1080/00022470.1982.10465374)", "origin": "cited, not measured here", "data": [{"test": "Henry solubility constant Hcp at 298.15 K (mol/(m3 Pa))", "settings": "reference: Shen (1982); cited value", "values": [{"molecule": "CC(Cl)(Cl)Cl", "note": "[1,1,1-trichloroethane]", "Henry solubility constant Hcp": 0.002}, {"molecule": "C=C(Cl)Cl", "note": "[1,1-dichloroethene]", "Henry solubility constant Hcp": 0.00066}, {"molecule": "CC(Cl)CCl", "note": "(centres undefined) [1,2-dichloropropane]", "Henry solubility constant Hcp": 0.0035}, {"molecule": "Clc1cccc(Cl)c1", "note": "[1,3-dichlorobenzene]", "Henry solubility constant Hcp": 0.0038}, {"molecule": "ClC=CCCl", "note": "[1,3-dichloropropene]", "Henry solubility constant Hcp": 0.0028}, {"molecule": "Clc1ccc(Cl)cc1", "note": "[1,4-dichlorobenzene]", "Henry solubility constant Hcp": 0.0036}, {"molecule": "c1ccc2c(c1)Cc1ccccc1-2", "note": "[2,3-benzindene]", "Henry solubility constant Hcp": 0.084}, {"molecule": "c1cc2c3c(cccc3c1)CC2", "note": "[acenaphthene]", "Henry solubility constant Hcp": 0.041}, {"molecule": "C1=Cc2cccc3cccc1c23", "note": "[acenaphthylene]", "Henry solubility constant Hcp": 0.087}, {"molecule": "ClC1=C(Cl)[C@]2(Cl)[C@H]3[C@H]([C@@H]4C=C[C@H]3C4)[C@@]1(Cl)C2(Cl)Cl", "note": "[aldrin]", "Henry solubility constant Hcp": 0.02}, {"molecule": "c1ccccc1", "note": "[benzene]", "Henry solubility constant Hcp": 0.0018}, {"molecule": "ClC(Cl)Br", "note": "[bromodichloromethane]", "Henry solubility constant Hcp": 0.0047}, {"molecule": "ClC1=C(Cl)[C@]2(Cl)C3C(Cl)C(Cl)CC3[C@@]1(Cl)C2(Cl)Cl", "note": "(some centres undefined) [chlordane]", "Henry solubility constant Hcp": 0.21}, {"molecule": "Clc1ccccc1", "note": "[chlorobenzene]", "Henry solubility constant Hcp": 0.0025}, {"molecule": "ClC(Br)Br", "note": "[dibromochloromethane]", "Henry solubility constant Hcp": 0.013}, {"molecule": "ClCCl", "note": "[dichloromethane]", "Henry solubility constant Hcp": 0.0031}, {"molecule": "ClC1=C(Cl)[C@]2(Cl)[C@@H]3[C@@H]4C[C@@H]([C@H]5O[C@@H]45)[C@@H]3[C@@]1(Cl)C2(Cl)Cl", "note": "[dieldrin]", "Henry solubility constant Hcp": 0.17}, {"molecule": "CCc1ccccc1", "note": "[ethylbenzene]", "Henry solubility constant Hcp": 0.0015}, {"molecule": "ClC1=C(Cl)C2(Cl)C3C(Cl)C=CC3C1(Cl)C2(Cl)Cl", "note": "(centres undefined) [heptachlor]", "Henry solubility constant Hcp": 0.0067}, {"molecule": "ClC1=C(Cl)C2(Cl)C3C4OC4C(Cl)C3C1(Cl)C2(Cl)Cl", "note": "(centres undefined) [heptachlorepoxide]", "Henry solubility constant Hcp": 0.31}, {"molecule": "ClC(Cl)=C(Cl)C(Cl)=C(Cl)Cl", "note": "[hexachlorobutadiene]", "Henry solubility constant Hcp": 0.00096}, {"molecule": "ClC1=C(Cl)C(Cl)(Cl)C(Cl)=C1Cl", "note": "[hexachlorocyclopentadiene]", "Henry solubility constant Hcp": 0.0006}, {"molecule": "ClC(Cl)(Cl)C(Cl)(Cl)Cl", "note": "[hexachloroethane]", "Henry solubility constant Hcp": 0.001}, {"molecule": "Cc1ccccc1", "note": "[methylbenzene]", "Henry solubility constant Hcp": 0.0017}, {"molecule": "O=[N+]([O-])c1ccccc1", "note": "[nitrobenzene]", "Henry solubility constant Hcp": 0.41}, {"molecule": "ClC(Cl)=C(Cl)Cl", "note": "[tetrachloroethene]", "Henry solubility constant Hcp": 0.00034}, {"molecule": "ClC(Cl)(Cl)Cl", "note": "[tetrachloromethane]", "Henry solubility constant Hcp": 0.00033}, {"molecule": "BrC(Br)Br", "note": "[tribromomethane]", "Henry solubility constant Hcp": 0.019}, {"molecule": "ClC=C(Cl)Cl", "note": "[trichloroethene]", "Henry solubility constant Hcp": 0.00084}]}]}
